According to ChEMBL document CHEMBL1201862, “PubChem BioAssay data set” (2004):
“And” between values parts separate entries of the source, which are not always exact repeats. Equal entries are not always repeated.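 Assay format: 96-well plates, 48-hour exposure. GI50 is the concentration that inhibits growth by half.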 The source made the active and inactive calls. Cut-off read from the data, not from the text of the source: active = GI50 up to about 1.1 µM and inactive = higher.

What was measured:
Experiment in all cases: NCI tumour cell line growth inhibition, 48 h
[1] = system: HOP-62
[2] = system: OVCAR-8
[3] = system: Hs-578T
[4] = system: SK-MEL-2
[5] = system: PC-3
[6] = system: RPMI-8226
[7] = system: U-251
[8] = system: MDA-MB-435
[9] = system: IGROV-1
[10] = system: COLO 205
[11] = system: TK-10
[12] = system: CCRF-CEM
[13] = system: HCT-15
[14] = system: NCI-H23
[15] = system: HCC 2998
[16] = system: HT-29
[17] = system: 786-0
[18] = system: SNB-75
[19] = system: NCI-H522

Compound | GI50 [1] | GI50 [2] | GI50 [3] | GI50 [4] | GI50 [5] | GI50 [6] | GI50 [7] | GI50 [8] | GI50 [9] | GI50 [10] | GI50 [11] | GI50 [12] | GI50 [13] | GI50 [14] | GI50 [15] | GI50 [16] | GI50 [17] | GI50 [18] | GI50 [19]
C=CC(=O)N1C/C(=C\c2ccc([N+](=O)[O-])cc2)C(=O)/C(=C/c2ccc([N+](=O)[O-])cc2)C1 | 0.222 µM (active) | < 0.0391 µM (active) | < 0.0422 µM (active) | 0.43 µM (active) | 0.0698 µM (active) | 0.0193 µM (active) | 0.0697 µM (active) | 0.254 µM (active) | 0.0728 µM (active) | 0.0483 µM (active) | 0.713 µM (active) | 0.0565 µM (active) | 0.0253 µM | 0.256 µM (active) | 0.161 µM (active) | < 0.0176 µM (active) | < 0.0203 µM (active) | – | –
O=C(O)C(Cc1ccccc1)Cc1ccccc1 | > 100 µM (inactive) | > 100 µM (inactive) | 7.48 µM (inactive) | > 100 µM (inactive) | > 100 µM (inactive) | > 100 µM (inactive) | > 100 µM (inactive) | > 100 µM (inactive) | > 100 µM (inactive) | > 100 µM (inactive) | > 100 µM (inactive) | > 100 µM (inactive) | > 100 µM | > 100 µM (inactive) | – | > 100 µM (inactive) | > 100 µM (inactive) | > 100 µM (inactive) | > 100 µM (inactive)
CCCCCCCCCCCCCCCCCCNC(=S)N/C=C1/C(=O)C=C(C)OC1=O | 31.8 µM (inactive) | 23.8 µM (inactive) | – | 21.4 µM (inactive) | 17 µM (inactive) | – | 31.3 µM (inactive) | 23.7 µM (inactive) | 16.9 µM (inactive) | 27.7 µM (inactive) | 19.2 µM (inactive) | – | 15.7 µM | 22.8 µM (inactive) | 9.53 µM (inactive) | 20.8 µM (inactive) | 29.6 µM (inactive) | 14.3 µM (inactive) | –
CCOC(=O)C1=C(c2ccccc2)N(C)c2ccccc2S1 | 36.4 µM (inactive) | 33.6 µM (inactive) | 23.3 µM (inactive) | 23.2 µM (inactive) | 29.9 µM (inactive) | 17 µM (inactive) | 19.8 µM (inactive) | 33.2 µM (inactive) | 32.4 µM (inactive) | 31.3 µM (inactive) | 46.5 µM (inactive) | 31 µM (inactive) | 14.6 µM | 20.1 µM (inactive) | – | 17.4 µM (inactive) | 31.8 µM (inactive) | 38.6 µM (inactive) | 25.6 µM (inactive)
C=C1C(=O)OC2CC1C(OC(C)=O)C/C(C)=C/CC/C(C)=C\CCC2(C)O (stereo unspecified) | 15.3 µM (inactive) and 13.6 µM (inactive) | 3.36 µM (inactive) and 3.17 µM (inactive) | 5.87 µM (inactive) and 3.79 µM (inactive) | – | – | 1.9 µM (inactive) and 1.82 µM (inactive) | 10.7 µM (inactive) and 10.3 µM (inactive) | 4.19 µM (inactive) and 4.68 µM (inactive) | – | 3.98 µM (inactive) and 3.92 µM (inactive) | 4.37 µM (inactive) and 3.66 µM (inactive) | – | 1.56 µM and 3.04 µM | – | 7.69 µM (inactive) and 4.74 µM (inactive) | – | 3.24 µM (inactive) and 2.6 µM (inactive) | 11.2 µM (inactive) and 10.8 µM (inactive) | 1.44 µM (inactive) and 1.36 µM (inactive)
CN(C(=O)Cc1cc(Cl)c(Cl)cc1NC(=O)CCCN)[C@H]1CCCC[C@@H]1N1CCCC1 | > 100 µM (inactive) | > 100 µM (inactive) | – | 21.9 µM (inactive) | 40.3 µM (inactive) | > 100 µM (inactive) | 19.3 µM (inactive) | 16.4 µM (inactive) | > 100 µM (inactive) | 17.9 µM (inactive) | 57.8 µM (inactive) | – | > 100 µM | > 100 µM (inactive) | 16.6 µM (inactive) | 20.5 µM (inactive) | 19.5 µM (inactive) | – | 15.8 µM (inactive)
N=C(c1ccc2ccccc2c1)c1ccccc1Cc1ccccc1 | 39.6 µM (inactive) | 44 µM (inactive) | – | 18.2 µM (inactive) | 51.6 µM (inactive) | 38 µM (inactive) | 35.9 µM (inactive) | 22.7 µM (inactive) | 35.9 µM (inactive) | > 100 µM (inactive) | > 100 µM (inactive) | 19.5 µM (inactive) | 28.8 µM | 41.7 µM (inactive) | 31.8 µM (inactive) | 16.4 µM (inactive) | 54.6 µM (inactive) | – | –
CCOC(=O)/C(C(N)=O)=C(O)/C(O)=C/C(=O)c1ccc(Cl)cc1 | 21.9 µM (inactive) | 17.7 µM (inactive) | 42.1 µM (inactive) | 18.5 µM (inactive) | 19.1 µM (inactive) | 19.8 µM (inactive) | 15.6 µM (inactive) | 23.1 µM (inactive) | 18 µM (inactive) | 17.8 µM (inactive) | 8.63 µM (inactive) | 4.53 µM (inactive) | 17.7 µM | 18.3 µM (inactive) | – | 21.8 µM (inactive) | 17.2 µM (inactive) | 12.8 µM (inactive) | 16.2 µM (inactive)
CC(Br)C(=O)NC(CO)C(=O)O (stereo unspecified) | > 100 µM (inactive) | > 100 µM (inactive) | > 100 µM (inactive) | > 100 µM (inactive) | > 100 µM (inactive) | > 100 µM (inactive) | > 100 µM (inactive) | > 100 µM (inactive) | > 100 µM (inactive) | > 100 µM (inactive) | > 100 µM (inactive) | > 100 µM (inactive) | > 100 µM | > 100 µM (inactive) | – | > 100 µM (inactive) | > 100 µM (inactive) | > 100 µM (inactive) | > 100 µM (inactive)
CN(C)CC(/C(Cc1ccccc1)=N\NC(=O)C[n+]1ccccc1)c1ccccc1 (stereo unspecified) | > 100 µM (inactive) | 35.1 µM (inactive) | – | > 100 µM (inactive) | – | – | > 100 µM (inactive) | – | > 100 µM (inactive) | > 100 µM (inactive) | > 100 µM (inactive) | > 100 µM (inactive) | > 100 µM | > 100 µM (inactive) | > 100 µM (inactive) | > 100 µM (inactive) | > 100 µM (inactive) | > 100 µM (inactive) | 80.9 µM (inactive)
COc1cc(N(CCC#N)CCC#N)ccc1C(/N=N/c1ccccc1C)=N\NC(=O)c1ccc(C)cc1 | > 100 µM (inactive) | 71 µM (inactive) | > 100 µM (inactive) | 43.9 µM (inactive) | 59.3 µM (inactive) | – | 42.3 µM (inactive) | 29.3 µM (inactive) | 75 µM (inactive) | 33.7 µM (inactive) | > 100 µM (inactive) | 15.2 µM (inactive) | > 100 µM | 91.8 µM (inactive) | 85.3 µM (inactive) | 85.3 µM (inactive) | 36.6 µM (inactive) | – | 25.2 µM (inactive)
O=C1/C(=C/c2ccco2)NC(=S)N1CN1CCOCC1 | > 100 µM (inactive) | > 100 µM (inactive) | > 100 µM (inactive) | > 100 µM (inactive) | > 100 µM (inactive) | > 100 µM (inactive) | > 100 µM (inactive) | > 100 µM (inactive) | > 100 µM (inactive) | > 100 µM (inactive) | > 100 µM (inactive) | > 100 µM (inactive) | > 100 µM | > 100 µM (inactive) | – | > 100 µM (inactive) | > 100 µM (inactive) | > 100 µM (inactive) | –
C=C1CC(C#N)(C#N)[C@@H]2CC3CCCC3[C@H]12.C=C1CC(C#N)(C#N)[C@H]2C3CCCC3C[C@@H]12 (stereo partly specified) | 10 µM (inactive) | 17.8 µM (inactive) | 35.9 µM (inactive) | – | 30.1 µM (inactive) | – | 20 µM (inactive) | 19.3 µM (inactive) | 27.9 µM (inactive) | – | 35.1 µM (inactive) | 10 µM (inactive) | 15.9 µM | 10 µM (inactive) | – | 14 µM (inactive) | 10.5 µM (inactive) | – | –
CN(Cc1ccccc1)c1cc(=O)n(C)c(=O)[nH]1 | – | > 100 µM (inactive) | > 100 µM (inactive) | > 100 µM (inactive) | > 100 µM (inactive) | > 100 µM (inactive) | > 100 µM (inactive) | > 100 µM (inactive) | – | > 100 µM (inactive) | > 100 µM (inactive) | 62.2 µM (inactive) | > 100 µM | > 100 µM (inactive) | > 100 µM (inactive) | > 100 µM (inactive) | > 100 µM (inactive) | – | > 100 µM (inactive)
[N-]=[N+]=CC(=O)OCCCCl | > 100 µM (inactive) | – | – | > 100 µM (inactive) | > 100 µM (inactive) | > 100 µM (inactive) | > 100 µM (inactive) | > 100 µM (inactive) | > 100 µM (inactive) | > 100 µM (inactive) | > 100 µM (inactive) | > 100 µM (inactive) | > 100 µM | > 100 µM (inactive) | > 100 µM (inactive) | > 100 µM (inactive) | > 100 µM (inactive) | – | > 100 µM (inactive)
CNC(=S)N/N=C1\C(=O)N(CN2CCOCC2)c2ccc([N+](=O)[O-])cc21 | 14.1 µM (inactive) | – | 25 µM (inactive) | 6.5 µM (inactive) | 22.1 µM (inactive) | 21.2 µM (inactive) | 14.7 µM (inactive) | 60.3 µM (inactive) | – | 26.9 µM (inactive) | 13.3 µM (inactive) | 23.5 µM (inactive) | 12.9 µM | 17.7 µM (inactive) | 14.9 µM (inactive) | 40.6 µM (inactive) | 15.3 µM (inactive) | – | –
O=S(=O)(F)Cc1ccccc1 [PHENYLMETHYLSULFONYLFLUORIDE] | > 100 µM (inactive) | > 100 µM (inactive) | – | > 100 µM (inactive) | > 100 µM (inactive) | > 100 µM (inactive) | > 100 µM (inactive) | > 100 µM (inactive) | > 100 µM (inactive) | > 100 µM (inactive) | > 100 µM (inactive) | > 100 µM (inactive) | > 100 µM | > 100 µM (inactive) | > 100 µM (inactive) | > 100 µM (inactive) | > 100 µM (inactive) | > 100 µM (inactive) | 39.1 µM (inactive)
